# Measurements taken from PubChem BioAssay (NCI).
#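 Cultured in 96-well plates, cells were exposed to test compound for 48 hours across five concentrations. GI50 is the concentration that inhibits growth by half. TGI: total growth inhibition.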
# Key:
# Assay in all cases: NCI tumour cell line growth inhibition, 48 h
# M14 melanoma = test system: M14 melanoma
# SF-295 CNS = test system: SF-295 CNS
# NCI-H522 lung = test system: NCI-H522 lung
# T-47D breast = test system: T-47D breast
# HT29 colon = test system: HT29 colon
# SNB-19 CNS = test system: SNB-19 CNS
# NCI/ADR-RES ovarian = test system: NCI/ADR-RES ovarian
# SF-539 CNS = test system: SF-539 CNS
# CAKI-1 renal = test system: CAKI-1 renal
# EKVX NSCLC = test system: EKVX NSCLC
SMILES,GI50 (M14 melanoma),TGI (M14 melanoma),GI50 (SF-295 CNS),TGI (SF-295 CNS),GI50 (NCI-H522 lung),TGI (NCI-H522 lung),GI50 (T-47D breast),TGI (T-47D breast),GI50 (HT29 colon),TGI (HT29 colon),GI50 (SNB-19 CNS),TGI (SNB-19 CNS),GI50 (NCI/ADR-RES ovarian),TGI (NCI/ADR-RES ovarian),GI50 (SF-539 CNS),TGI (SF-539 CNS),GI50 (CAKI-1 renal),TGI (CAKI-1 renal),GI50 (EKVX NSCLC),TGI (EKVX NSCLC)
O=c1c(Oc2ccc(F)cc2F)cc2cnc(NC3CCOCC3)nc2n1C1CC1,> 25 µM,> 25 µM,> 25 µM,> 25 µM,> 25 µM,> 25 µM,19.3 µM,> 25 µM,> 25 µM,> 25 µM,> 25 µM,> 25 µM,> 25 µM,> 25 µM,> 25 µM,> 25 µM,> 25 µM,> 25 µM,,
C=CCN(CC=C)Cc1c[nH]c2ccccc12,,,21 µM,> 100 µM,14.9 µM,33.8 µM,> 100 µM,> 100 µM,41.9 µM,> 100 µM,> 100 µM,> 100 µM,18.3 µM,43.8 µM,,,19.8 µM,> 100 µM,,
OCc1ccc(N2CCc3ccc(F)cc3C2)cc1Cl,14.5 µM,30 µM,0.0728 µM,1.96 µM,12.6 µM,26.2 µM,0.101 µM,0.499 µM,0.229 µM,6.61 µM,12.4 µM,27 µM,5.22 µM,25.6 µM,15.9 µM,31 µM,1.01 µM,9.62 µM,,
C#CCCCCCC(=O)N[C@H]1C=C[C@@H]2/C=C(C)/C=C/[C@@H](C)[C@H]([C@H](C)[C@H](O)[C@@H](C)NC(C)=O)OC(=O)/C=C/C=C(C)\C=C\[C@]2(C)C1,,,< 0.004 µM,0.0182 µM,0.0091 µM,14.2 µM,< 0.004 µM,13.6 µM,< 0.004 µM,25.1 µM,0.0247 µM,> 40 µM,0.0258 µM,> 40 µM,< 0.004 µM,32.3 µM,,,0.0213 µM,> 40 µM
O=[N+]([O-])c1ccc(/C=C(/c2ccc([N+](=O)[O-])o2)S(=O)(=O)c2ccccc2)cc1,,> 100 µM,,> 100 µM,,> 100 µM,,> 100 µM,,> 100 µM,,> 100 µM,,> 100 µM,,98.3 µM,,> 100 µM,,
N#CC1=C(N)Oc2c(ccc3ccccc23)C1c1cc2ccccc2n2nnnc12 (centres undefined),0.948 µM,> 100 µM,0.832 µM,> 100 µM,0.407 µM,2.9 µM,1.83 µM,> 100 µM,3 µM,> 100 µM,0.702 µM,> 100 µM,0.534 µM,46.6 µM,,,5.74 µM,> 100 µM,5.8 µM,> 100 µM
CC(=O)O[C@H]1C[C@@H]2[C@@]3(C)CC[C@H]4C[C@@]4(C)[C@@H]3CC[C@@]2(C)C2=CCC3=C(COC3=O)[C@]21C,22.6 µM,47.3 µM,19.6 µM,40.9 µM,24.5 µM,84.1 µM,20.7 µM,54.7 µM,31.6 µM,> 100 µM,24.3 µM,69.7 µM,16.9 µM,36.3 µM,15.7 µM,32.5 µM,,,17.6 µM,35 µM
COc1cc(NC(=O)COc2ccccc2)c(C(N)=O)cc1OC,0.614 µM,> 100 µM,0.93 µM,16.6 µM,0.41 µM,7.06 µM,3.46 µM,> 100 µM,0.437 µM,> 100 µM,3.31 µM,51.9 µM,0.487 µM,11.7 µM,0.563 µM,3.59 µM,3.8 µM,> 100 µM,,
CCN1CCN(CC(=O)Nc2nc3ccc(NCc4ccc(Br)cc4)cc3s2)CC1,1.72 µM,3.63 µM,,,,,1.75 µM,4.55 µM,,,2.6 µM,6.93 µM,3.3 µM,> 100 µM,1.75 µM,3.24 µM,1.84 µM,4.55 µM,3.02 µM,> 100 µM
CCOC(=O)C#Cc1c(C(=O)OCC)nnn1[C@@H]1O[C@H](COC)[C@@H](OC)[C@H]1OC,3.27 µM,10.8 µM,> 100 µM,> 100 µM,1.97 µM,3.9 µM,2.47 µM,7.39 µM,2.86 µM,6.49 µM,69.4 µM,> 100 µM,15.9 µM,37.3 µM,,,1.74 µM,3.14 µM,16.3 µM,32.9 µM
O=C(NO)c1ccc(CNc2cccc3nc(C4CC4)n(-c4ccccc4)c(=O)c23)cc1,1.91 µM,4.14 µM,,,1.47 µM,3.38 µM,2.08 µM,7.34 µM,2.16 µM,5.62 µM,2.61 µM,9.68 µM,1.28 µM,6.45 µM,1.71 µM,3.53 µM,2.12 µM,7.51 µM,2.55 µM,7.43 µM
